Test: Appearance of formulation (state at 25° C.)
Format: physicochemical
Conditions: 25° C.; components (A) and (B) at the compounding molar ratio shown
Experimental: Formulations 1 to 427 shown in Tables 1A to 1D were prepared by the above-described method using the components (A) and (B) at the compounding molar ratios shown in the tables, and their states at 25° C. were observed.

| Structure (SMILES) | state at 25° C. |
| --- | --- |
| CCCCC/C=C\C/C=C\CCCCCCCC(=O)O.CCCCC/C=C\C/C=C\CCCCCCCC(=O)O.N[C@@H](Cc1cnc[nH]1)C(=O)O [Formulation 113] | Solid |
| N[C@@H](Cc1cnc[nH]1)C(=O)O.O=C(O)CCCCC(=O)O.O=C(O)CCCCC(=O)O [Formulation 116] | Solid |
| N[C@@H](Cc1c[nH]cn1)C(=O)O.O=C(O)C[C@H](O)C(=O)O.O=C(O)C[C@H](O)C(=O)O [Formulation 120] | Solid |
| N[C@@H](Cc1c[nH]cn1)C(=O)O.O=C(O)C(O)C(O)C(=O)O.O=C(O)C(O)C(O)C(=O)O [Formulation 122] | Solid |
| N[C@@H](Cc1c[nH]cn1)C(=O)O.O=C(O)c1ccccc1.O=C(O)c1ccccc1 [Formulation 123] | Solid |
| N[C@@H](Cc1c[nH]cn1)C(=O)O.O=C(O)/C=C/c1ccccc1.O=C(O)/C=C/c1ccccc1 [Formulation 124] | Solid |
| N[C@@H](Cc1c[nH]cn1)C(=O)O.O=C1O[C@H]([C@@H](O)CO)C(O)=C1O.O=C1O[C@H]([C@@H](O)CO)C(O)=C1O [Formulation 125] | Solid |
| CC(=O)O.NCC(=O)O [Formulation 128] | Solid |
| CCC(=O)O.NCC(=O)O [Formulation 129] | Solid |
| CCCCCC(=O)O.NCC(=O)O [Formulation 130] | Solid |
| CCCC(=O)O.NCC(=O)O [Formulation 131] | Solid |
| CCCCCCCC/C=C\CCCCCCCC(=O)O.NCC(=O)O [Formulation 133] | Solid |
| CCCCC/C=C\C/C=C\CCCCCCCC(=O)O.NCC(=O)O [Formulation 134] | Solid |
| NCC(=O)O.O=C(O)[C@H](O)[C@@H](O)[C@H](O)[C@H](O)CO [Formulation 135] | Solid |
| CC(O)C(=O)O.NCC(=O)O (stereo not shown) [Formulation 136] | Solid |
| NCC(=O)O.O=C(O)CCCCC(=O)O [Formulation 137] | Solid |
| NCC(=O)O.O=C(O)CCC(=O)O [Formulation 138] | Solid |
| NCC(=O)O.N[C@@H](CCC(=O)O)C(=O)O [Formulation 139] | Solid |
| NCC(=O)O.O=C(O)/C=C/C(=O)O [Formulation 140] | Solid |
| NCC(=O)O.O=C(O)C[C@H](O)C(=O)O [Formulation 141] | Solid |
| NCC(=O)O.O=C(O)C(O)C(O)C(=O)O (stereo not shown) [Formulation 143] | Solid |
| NCC(=O)O.O=C(O)c1ccccc1 [Formulation 144] | Solid |

| Structure (SMILES) | state at 25° C. |
| --- | --- |
| NCC(=O)O.O=C1O[C@H]([C@@H](O)CO)C(O)=C1O [Formulation 145] | Solid |
| NCC(=O)O.O=C1O[C@H]([C@H](O)CO)C(O)=C1O [Formulation 146] | Solid |
| C[C@H](N)C(=O)O.O=CO [Formulation 147] | Solid |
| CC(=O)O.C[C@H](N)C(=O)O [Formulation 148] | Solid |
| CCC(=O)O.C[C@H](N)C(=O)O [Formulation 149] | Solid |
| CCCCCC(=O)O.C[C@H](N)C(=O)O [Formulation 150] | Solid |
| CCCC(=O)O.C[C@H](N)C(=O)O [Formulation 151] | Solid |
| CCCCCCCC/C=C\CCCCCCCC(=O)O.C[C@H](N)C(=O)O [Formulation 153] | Solid |
| CCCCC/C=C\C/C=C\CCCCCCCC(=O)O.C[C@H](N)C(=O)O [Formulation 154] | Solid |
| C[C@H](N)C(=O)O.O=C(O)C(O)C(O)C(O)C(O)CO (stereo not shown) [Formulation 155] | Solid |
| CC(O)C(=O)O.C[C@H](N)C(=O)O (stereo not shown) [Formulation 156] | Solid |
| C[C@H](N)C(=O)O.O=C(O)CCCCC(=O)O [Formulation 157] | Solid |
| C[C@H](N)C(=O)O.O=C(O)CCC(=O)O [Formulation 158] | Solid |
| C[C@H](N)C(=O)O.N[C@@H](CCC(=O)O)C(=O)O [Formulation 159] | Solid |
| C[C@H](N)C(=O)O.O=C(O)/C=C/C(=O)O [Formulation 160] | Solid |
| C[C@H](N)C(=O)O.O=C(O)C[C@H](O)C(=O)O [Formulation 161] | Solid |
| C[C@H](N)C(=O)O.O=C(O)CC(O)(CC(=O)O)C(=O)O [Formulation 162] | Solid |
| C[C@H](N)C(=O)O.O=C(O)C(O)C(O)C(=O)O (stereo not shown) [Formulation 163] | Solid |
| C[C@H](N)C(=O)O.O=C(O)c1ccccc1 [Formulation 164] | Solid |
| C[C@H](N)C(=O)O.O=C1O[C@H]([C@@H](O)CO)C(O)=C1O [Formulation 165] | Solid |
| C[C@H](N)C(=O)O.O=C1O[C@H]([C@H](O)CO)C(O)=C1O [Formulation 166] | Solid |
| NCCCC(=O)O.O=CO [Formulation 167] | Solid |

| Structure (SMILES) | state at 25° C. |
| --- | --- |
| CC(=O)O.NCCCC(=O)O [Formulation 168] | Solid |
| CCC(=O)O.NCCCC(=O)O [Formulation 169] | Solid |
| CCCCCC(=O)O.NCCCC(=O)O [Formulation 170] | Solid |
| CCCC(=O)O.NCCCC(=O)O [Formulation 171] | Solid |
| CCCCC/C=C\C/C=C\CCCCCCCC(=O)O.NCCCC(=O)O [Formulation 174] | Solid |
| NCCCC(=O)O.O=C(O)CCCCC(=O)O [Formulation 177] | Solid |
| NCCCC(=O)O.O=C(O)CCC(=O)O [Formulation 178] | Solid |
| NCCCC(=O)O.N[C@@H](CCC(=O)O)C(=O)O [Formulation 179] | Solid |
| NCCCC(=O)O.O=C(O)/C=C/C(=O)O [Formulation 180] | Solid |
| NCCCC(=O)O.O=C(O)C[C@H](O)C(=O)O [Formulation 181] | Solid |
| NCCCC(=O)O.O=C(O)C(O)C(O)C(=O)O (stereo not shown) [Formulation 183] | Solid |
| NCCCC(=O)O.O=C(O)c1ccccc1 [Formulation 184] | Solid |
| NCCCC(=O)O.O=C1O[C@H]([C@@H](O)CO)C(O)=C1O [Formulation 185] | Solid |
| NCCCC(=O)O.O=C1O[C@H]([C@H](O)CO)C(O)=C1O [Formulation 186] | Solid |
| CC(C)[C@H](N)C(=O)O.O=CO [Formulation 187] | Solid |
| CC(=O)O.CC(C)[C@H](N)C(=O)O [Formulation 188] | Solid |
| CC(C)[C@H](N)C(=O)O.CCC(=O)O [Formulation 189] | Solid |
| CC(C)[C@H](N)C(=O)O.CCCCCC(=O)O [Formulation 190] | Solid |
| CC(C)[C@H](N)C(=O)O.CCCC(=O)O [Formulation 191] | Solid |
| CC(C)[C@H](N)C(=O)O.O=C(O)[C@H](O)[C@@H](O)[C@H](O)[C@H](O)CO [Formulation 192] | Solid |
| CC(C)[C@H](N)C(=O)O.CC(O)C(=O)O [Formulation 193] | Solid |
| CC(C)[C@H](N)C(=O)O.O=C(O)CCCCC(=O)O [Formulation 194] | Solid |

| Structure (SMILES) | state at 25° C. |
| --- | --- |
| CC(C)[C@H](N)C(=O)O.O=C(O)CCC(=O)O [Formulation 195] | Solid |
| CC(C)[C@H](N)C(=O)O.N[C@@H](CCC(=O)O)C(=O)O [Formulation 196] | Solid |
| CC(C)[C@H](N)C(=O)O.O=C(O)/C=C/C(=O)O [Formulation 197] | Solid |
| CC(C)[C@H](N)C(=O)O.O=C(O)C[C@H](O)C(=O)O [Formulation 198] | Solid |
| CC(C)[C@H](N)C(=O)O.O=C(O)CC(O)(CC(=O)O)C(=O)O [Formulation 199] | Solid |
| CC(C)[C@H](N)C(=O)O.O=C(O)C(O)C(O)C(=O)O (stereo not shown) [Formulation 200] | Solid |
| CC(C)[C@H](N)C(=O)O.O=C(O)c1ccccc1 [Formulation 201] | Solid |
| CC(C)[C@H](N)C(=O)O.O=C1O[C@H]([C@@H](O)CO)C(O)=C1O [Formulation 202] | Solid |
| CC(C)[C@H](N)C(=O)O.O=C1O[C@H]([C@H](O)CO)C(O)=C1O [Formulation 203] | Solid |
| CC(C)C[C@H](N)C(=O)O.O=CO [Formulation 204] | Solid |
| CC(=O)O.CC(C)C[C@H](N)C(=O)O [Formulation 205] | Solid |
| CC(C)C[C@H](N)C(=O)O.CCC(=O)O [Formulation 206] | Solid |
| CC(C)C[C@H](N)C(=O)O.CCCCCC(=O)O [Formulation 207] | Solid |
| CC(C)C[C@H](N)C(=O)O.CCCC(=O)O [Formulation 208] | Solid |
| CC(C)C[C@H](N)C(=O)O.O=C(O)[C@H](O)[C@@H](O)[C@H](O)[C@H](O)CO [Formulation 209] | Solid |
| CC(C)C[C@H](N)C(=O)O.CC(O)C(=O)O [Formulation 210] | Solid |
| CC(C)C[C@H](N)C(=O)O.O=C(O)CCCCC(=O)O [Formulation 211] | Solid |
| CC(C)C[C@H](N)C(=O)O.O=C(O)CCC(=O)O [Formulation 212] | Solid |
| CC(C)C[C@H](N)C(=O)O.N[C@@H](CCC(=O)O)C(=O)O [Formulation 213] | Solid |
| CC(C)C[C@H](N)C(=O)O.O=C(O)/C=C/C(=O)O [Formulation 214] | Solid |
| CC(C)C[C@H](N)C(=O)O.O=C(O)C[C@H](O)C(=O)O [Formulation 215] | Solid |
| CC(C)C[C@H](N)C(=O)O.O=C(O)CC(O)(CC(=O)O)C(=O)O [Formulation 216] | Solid |

From patent publication US20250186321A1, “FORMULATION USING AMINO ACID AND CARBOXYLIC ACID, ORGANIC SALT, AND COMPOSITION COMPRISING SAME AND USE THEREOF” (MIYOSHI OIL & FAT CO., LTD., priority 2021, published 2025)
